One test deals with human CB1 receptor (Homo sapiens, UniProt P21554). The test is described as follows: cell-based.
The next test addresses T1, rat CB2 receptor (Rattus norvegicus, UniProt Q9QZN9).
T1 sequence (Q9QZN9 1-360): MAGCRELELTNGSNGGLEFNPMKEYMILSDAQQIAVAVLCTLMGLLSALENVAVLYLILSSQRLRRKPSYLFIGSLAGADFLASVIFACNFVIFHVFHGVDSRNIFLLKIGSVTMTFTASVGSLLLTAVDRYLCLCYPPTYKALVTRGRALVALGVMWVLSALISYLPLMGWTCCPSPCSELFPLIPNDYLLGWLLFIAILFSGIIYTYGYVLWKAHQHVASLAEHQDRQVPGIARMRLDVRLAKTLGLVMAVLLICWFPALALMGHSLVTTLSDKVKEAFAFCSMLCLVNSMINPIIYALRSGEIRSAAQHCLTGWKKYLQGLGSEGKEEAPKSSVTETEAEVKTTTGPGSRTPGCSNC
In words: cell-based. It is filed as cell-based.

SMILES strings stand for the structures.

Sequence of human CB1 receptor (P21554 whole entry): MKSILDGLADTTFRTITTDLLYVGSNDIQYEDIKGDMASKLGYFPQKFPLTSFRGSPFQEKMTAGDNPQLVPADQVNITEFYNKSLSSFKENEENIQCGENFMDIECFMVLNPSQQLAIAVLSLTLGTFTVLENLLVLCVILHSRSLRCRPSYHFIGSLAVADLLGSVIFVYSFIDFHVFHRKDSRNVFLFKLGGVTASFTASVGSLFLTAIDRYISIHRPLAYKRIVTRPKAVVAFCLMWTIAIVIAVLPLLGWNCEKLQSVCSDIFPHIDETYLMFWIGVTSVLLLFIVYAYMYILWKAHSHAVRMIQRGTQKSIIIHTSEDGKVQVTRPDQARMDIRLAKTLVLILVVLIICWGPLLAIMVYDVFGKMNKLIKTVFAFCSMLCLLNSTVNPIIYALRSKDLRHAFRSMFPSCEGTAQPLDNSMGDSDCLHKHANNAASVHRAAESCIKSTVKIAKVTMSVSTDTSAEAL

Broadly, the EC50 is the concentration at which the effect is half-maximal. `COCCN(C(=O)c1cnc2c(c1)N(S(=O)(=O)c1ccc(C(F)(F)F)cc1)CCO2)C(C)(C)C` [Example 43, N-tert-butyl-N-(2-methoxyethyl)-1-(4-(trifluoromethyl)phenylsulf-onyl)-2,3-dihydro-1H-pyrido[2,3-b][1,4]oxazine-7-carboxamide]: the “inverse agonist mark, human CB1 receptor” value at human CB1 receptor (asterisk at the compound number) is given as 11, 24, 25, 42, 43*, 67, 117*, 121, 124, 131, 132, 148, 150, 151,. The EC50 on rat CB2 receptor was no more than 30 nM.

Turning to `CC(C)(CN1CCOCC1)NC(=O)c1cnc2c(c1)N(S(=O)(=O)c1ccc(C(F)(F)F)cc1)CCO2` [Example 46, N-(2-methyl-1-morpholinopropan-2-yl)-1-(4-(trifluoromethyl)phenylsulfonyl)-2,3-dihydro-1H-pyrido[2,3-b][1,4]oxazine-7-carboxamide], the EC50 on human CB1 receptor is greater than 30000 nM; on rat CB2 receptor, no more than 30 nM.

Take `CC(C)(C)NC(=O)c1cnc2c(c1)N(S(=O)(=O)c1ccc(OC(F)(F)F)cc1)CCO2` [Example 48, N-tert-butyl-1-(4-(trifluoromethoxy)phenyl-sulfonyl)-2,3-dihydro-1H-pyrido[2,3-b][1,4]oxazine-7-carboxamide]: the values for the EC50 at human CB1 receptor and on rat CB2 receptor were greater than 30000 nM and no more than 30 nM, respectively.

Turning to `Cc1ccc(S(=O)(=O)N2CCOc3ncc(C(=O)NC(C)(C)C)cc32)s1` [Example 59, N-tert-butyl-1-(5-methylthiophen-2-ylsulfonyl)-2,3-dihydro-1H-pyrido[2,3-b][1,4]oxazine-7-carboxamide], the EC50 is greater than 30000 nM on human CB1 receptor and no more than 30 nM on rat CB2 receptor.

Take `CCC(CO)(CO)NC(=O)c1cnc2c(c1)N(S(=O)(=O)c1ccc(C(F)(F)F)cc1)CCO2` [Example 64, N-(1-hydroxy-2-(hydroxymethyl)butan-2-yl)-1-(4-(trifluoromethyl)phenylsulf-onyl)-2,3-dihydro-1H-pyrido[2,3-b][1,4]oxazine-7-carboxamide]: the EC50 at human CB1 receptor is greater than 30000 nM; at rat CB2 receptor it was no more than 30 nM.

`CC(C)(C)CC(C)(C)NC(=O)c1cnc2c(c1)N(S(=O)(=O)c1ccc(C(F)(F)F)cc1)CCO2` [Example 65, 1-(4-(trifluoromethyl)-phenylsulfonyl)-N-(2,4,4-trimethylpentan-2-yl)-2,3-dihydro-1H-pyrido[2,3-b][1,4]oxazine-7-carboxamide]: the figures for the half-maximal effective concentration (EC50) on human CB1 receptor and at rat CB2 receptor were greater than 30000 nM and no more than 30 nM, respectively.

Regarding `COC(=O)[C@@H]1CCCCN1C(=O)c1cnc2c(c1)N(S(=O)(=O)c1ccc(C(F)(F)F)cc1)CCO2` [Example 68, (S)-methyl 1-(1-(4-(trifluoromethyl)phenylsulf-onyl)-2,3-dihydro-1H-pyrido[2,3-b][1,4]oxazine-7-carbonyl)piperidine-2-carboxylate], the EC50 was greater than 30000 nM on human CB1 receptor and no more than 30 nM at rat CB2 receptor.

Turning to `CCOC(=O)C1(NC(=O)c2cnc3c(c2)N(S(=O)(=O)c2ccc(C(F)(F)F)cc2)CCO3)CC1` [Example 70, ethyl 1-(1-(4-(trifluoromethyl)phenylsulf-onyl)-2,3-dihydro-1H-pyrido[2,3-b][1,4]oxazine-7-carboxamido)-cyclopropanecarboxylate], the EC50 is greater than 30000 nM at human CB1 receptor and no more than 30 nM on rat CB2 receptor.

Consider `CCOC(=O)C1(NC(=O)c2cnc3c(c2)N(S(=O)(=O)c2ccc(C(F)(F)F)cc2)CCO3)CCC1` [Example 71, ethyl 1-(1-(4-(trifluoro-methyl)phenylsulfonyl)-2,3-dihydro-1H-pyrido-[2,3-b][1,4]oxazine-7-carboxamido)cyclo-butanecarboxylate], for which the EC50 was greater than 30000 nM on human CB1 receptor and no more than 30 nM on rat CB2 receptor.

With `CC(C)(C)NC(=O)c1cnc2c(c1)N(S(=O)(=O)c1cccc(C(F)(F)F)c1)CCO2` [Example 83, N-tert-butyl-1-(3-(trifluoromethyl)phenylsulf-onyl)-2,3-dihydro-1H-pyrido[2,3-b][1,4]oxazine-7-carboxamide], the EC50 is greater than 30000 nM at human CB1 receptor and no more than 30 nM on rat CB2 receptor.

On to `CC(C)(C)NC(=O)c1cnc2c(c1)N(S(=O)(=O)c1cccc(Cl)c1)CCO2` [Example 89, N-tert-butyl-1-(3-chlorophenylsulfonyl)-2,3-dihydro-1H-pyrido[2,3-b][1,4]oxazine-7-carboxamide], for which the EC50 was greater than 30000 nM on human CB1 receptor and no more than 30 nM on rat CB2 receptor.

For the compound `CC(C)(C)NC(=O)c1cnc2c(c1)N(S(=O)(=O)c1ccsc1)CCO2` [Example 90, N-tert-butyl-1-(thiophen-3-ylsulfonyl)-2,3-dihydro-1H-pyrido[2,3-b][1,4]oxazine-7-carboxamide], the EC50 is greater than 30000 nM on human CB1 receptor and no more than 30 nM at rat CB2 receptor.

On to `Cc1csc(S(=O)(=O)N2CCOc3ncc(C(=O)NC(C)(C)C)cc32)c1` [Example 92, N-tert-butyl-1-(4-methylthiophen-2-ylsulfonyl)-2,3-dihydro-1H-pyrido[2,3-b][1,4]oxazine-7-carboxamide], for which the EC50 at human CB1 receptor was greater than 30000 nM; on rat CB2 receptor, no more than 30 nM.

Turning to `CC(C)(CO)NC(=O)c1cnc2c(c1)N(S(=O)(=O)c1ccc(Cl)c(Cl)c1)CCO2` [Example 95, 1-(3,4-dichlorophenylsulfonyl)-N-(1-hydroxy-2-methylpropan-2-yl)-2,3-dihydro-1H-pyrido[2,3-b][1,4]oxazine-7-carboxamide], the EC50 at human CB1 receptor is greater than 30000 nM; at rat CB2 receptor, no more than 30 nM.

For the compound `CC(C)(CO)NC(=O)c1cnc2c(c1)N(S(=O)(=O)c1ccc(Cl)cc1F)CCO2` [Example 96, 1-(4-chloro-2-fluorophenylsulfonyl)-N-(1-hydroxy-2-methylpropan-2-yl)-2,3-dihydro-1H-pyrido[2,3-b][1,4]oxazine-7-carboxamide], the EC50 is greater than 30000 nM at human CB1 receptor and no more than 30 nM on rat CB2 receptor.

As to `CC(C)(O)CNC(=O)c1cnc2c(c1)N(S(=O)(=O)c1ccc(Cl)cc1F)CCO2` [Example 97, 1-(4-chloro-2-fluorophenylsulfonyl)-N-(2-hydroxy-2-methylpropyl)-2,3-dihydro-1H-pyrido[2,3-b][1,4]oxazine-7-carboxamide], the EC50 on human CB1 receptor is greater than 30000 nM; on rat CB2 receptor, no more than 30 nM.

As for `CC(C)(O)CNC(=O)c1cnc2c(c1)N(S(=O)(=O)c1ccc(Cl)c(Cl)c1)CCO2` [Example 98], the concentration for a half-maximal effect (EC50) is greater than 30000 nM on human CB1 receptor and no more than 30 nM at rat CB2 receptor.

With `CC(C)(CO)NC(=O)c1cnc2c(c1)N(S(=O)(=O)c1ccc(F)c(Cl)c1)CCO2` [Example 99, 1-(3-chloro-4-fluorophenylsulfonyl)-N-(1-hydroxy-2-methylpropan-2-yl)-2,3-dihydro-1H-pyrido[2,3-b][1,4]oxazine-7-carboxamide], the EC50 on human CB1 receptor was greater than 30000 nM; on rat CB2 receptor, no more than 30 nM.

With `COc1ccc(S(=O)(=O)N2CCOc3ncc(C(=O)NC(C)(C)CO)cc32)c(F)c1` [Example 103, 1-(2-fluoro-4-methoxyphenylsulfonyl)-N-(1-hydroxy-2-methylpropan-2-yl)-2,3-dihydro-1H-pyrido[2,3-b][1,4]oxazine-7-carboxamide], the EC50 was greater than 30000 nM on human CB1 receptor and no more than 30 nM at rat CB2 receptor.

In the case of `COc1ccc(S(=O)(=O)N2CCOc3ncc(C(=O)NCC(C)(C)O)cc32)cc1Cl` [Example 104], the EC50 was greater than 30000 nM on human CB1 receptor and no more than 30 nM on rat CB2 receptor.

In the case of `CC(C)(CN1CCOCC1)NC(=O)c1cnc2c(c1)N(S(=O)(=O)c1ccc(Cl)cc1F)CCO2` [Example 113, 1-(4-chloro-2-fluorophenylsulfonyl)-N-(2-methyl-1-morpholinopropan-2-yl)-2,3-dihydro-1H-pyrido[2,3-b][1,4]oxazine-7-carboxamide], the values for the EC50 on human CB1 receptor and at rat CB2 receptor were greater than 30000 nM and no more than 30 nM, respectively.

Values taken from patent US7960377B2 (priority 2008, dated 2011).
